Experimental data published in ChEMBL document CHEMBL1201862, “PubChem BioAssay data set” (2004).
The source made the active and inactive calls. Rule as the data show it, for most assays here: actives have a measured EC50 and inactives only a lower limit.

How the values were obtained:
Protein RecA = molecular target: T1, Protein RecA (Mycobacterium tuberculosis, UniProt P9WHJ3); assay: Fluorescence Cell-Free Homogeneous Dose Retest to Identify Inhibitors of RecA-Intein Splicing Activity. [Related pubchem assays (depositor defined):AID2097, AID2223, AID489010, AID492950]; type: functional
T1 sequence (P9WHJ3 whole entry): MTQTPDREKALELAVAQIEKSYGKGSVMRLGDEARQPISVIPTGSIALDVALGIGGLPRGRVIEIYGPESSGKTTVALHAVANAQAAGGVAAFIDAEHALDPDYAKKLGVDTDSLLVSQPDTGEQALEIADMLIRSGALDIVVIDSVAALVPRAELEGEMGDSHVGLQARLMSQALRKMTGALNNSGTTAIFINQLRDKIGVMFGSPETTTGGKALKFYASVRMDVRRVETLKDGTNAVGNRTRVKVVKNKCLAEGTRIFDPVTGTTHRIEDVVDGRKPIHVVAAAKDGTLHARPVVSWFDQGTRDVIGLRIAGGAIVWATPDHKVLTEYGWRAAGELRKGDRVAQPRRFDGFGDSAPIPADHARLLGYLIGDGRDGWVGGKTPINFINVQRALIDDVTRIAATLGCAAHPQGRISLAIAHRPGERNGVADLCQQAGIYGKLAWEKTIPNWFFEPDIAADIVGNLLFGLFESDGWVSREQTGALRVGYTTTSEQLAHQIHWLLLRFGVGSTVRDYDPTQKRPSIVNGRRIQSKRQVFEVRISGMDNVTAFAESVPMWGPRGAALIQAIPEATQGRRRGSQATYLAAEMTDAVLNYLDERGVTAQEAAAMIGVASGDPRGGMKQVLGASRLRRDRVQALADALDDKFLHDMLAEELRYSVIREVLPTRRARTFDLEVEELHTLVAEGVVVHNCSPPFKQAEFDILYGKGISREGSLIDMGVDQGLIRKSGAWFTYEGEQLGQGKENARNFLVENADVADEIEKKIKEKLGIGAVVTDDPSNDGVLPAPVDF

[1] = molecular target: T2, Replicative DNA helicase DnaB (Mycobacterium tuberculosis, UniProt P9WMR3); assay: DnaB intein splicing inhibitors, dose response, biochemical, cell-free fluorescence (AID 449749); type: functional
T2 sequence (P9WMR3 whole entry): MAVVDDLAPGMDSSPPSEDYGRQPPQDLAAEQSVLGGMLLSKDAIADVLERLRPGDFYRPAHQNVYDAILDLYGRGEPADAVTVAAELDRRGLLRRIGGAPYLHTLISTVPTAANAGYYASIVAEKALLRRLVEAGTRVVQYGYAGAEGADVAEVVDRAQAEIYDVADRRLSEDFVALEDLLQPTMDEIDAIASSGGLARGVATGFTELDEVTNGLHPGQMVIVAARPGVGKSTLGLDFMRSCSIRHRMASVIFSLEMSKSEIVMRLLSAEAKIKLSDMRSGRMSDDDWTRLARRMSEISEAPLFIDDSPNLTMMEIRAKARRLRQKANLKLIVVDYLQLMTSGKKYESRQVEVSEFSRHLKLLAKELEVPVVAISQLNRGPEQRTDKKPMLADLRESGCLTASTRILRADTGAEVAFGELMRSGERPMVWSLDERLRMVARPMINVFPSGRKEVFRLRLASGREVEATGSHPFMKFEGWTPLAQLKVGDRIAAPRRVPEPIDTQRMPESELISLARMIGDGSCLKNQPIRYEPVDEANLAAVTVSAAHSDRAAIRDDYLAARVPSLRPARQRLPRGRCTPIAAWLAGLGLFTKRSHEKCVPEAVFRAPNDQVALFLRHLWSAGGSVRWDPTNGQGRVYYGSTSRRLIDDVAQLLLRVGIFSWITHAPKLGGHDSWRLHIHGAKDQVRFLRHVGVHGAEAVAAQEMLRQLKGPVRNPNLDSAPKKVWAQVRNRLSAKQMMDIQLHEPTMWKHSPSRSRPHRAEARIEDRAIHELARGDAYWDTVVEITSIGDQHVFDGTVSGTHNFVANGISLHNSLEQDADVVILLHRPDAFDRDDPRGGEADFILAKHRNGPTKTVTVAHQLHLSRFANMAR

[2] = alpha-synuclein stem-loop luciferase translation blockers – H4 neuroglioma cells, luminescence, confirmation (AID 1988); type: functional, cell-based
[3] = Luminescence Cell-Based Dose Response HTS to Identify Inhibitors of 5'UTR Stem-Loop Driven Prion Protein mRNA Translation in H4 Neuroglioblastoma Cells. [Related pubchem assays: 1827 (Project Summary), 1813 (Primary HTS)]; type: functional
[4] = luciferase reporter signal suppression in cells – H4 neuroglioma cells, luminescence, dose response (AID 1990); type: functional, cell-based
Streptokinase A = molecular target: T3, Streptokinase A (Streptococcus pyogenes serotype M1, UniProt P10520); assay: viability-normalized secreted streptokinase activity reduction – plasminogen activation absorbance, OD405, dose response (AID 1914); type: functional, Streptococcus pyogenes M1 GAS;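 also: secreted streptokinase activity via plasminogen activation per viability signal from cell pellet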
T3 sequence (P10520 whole entry): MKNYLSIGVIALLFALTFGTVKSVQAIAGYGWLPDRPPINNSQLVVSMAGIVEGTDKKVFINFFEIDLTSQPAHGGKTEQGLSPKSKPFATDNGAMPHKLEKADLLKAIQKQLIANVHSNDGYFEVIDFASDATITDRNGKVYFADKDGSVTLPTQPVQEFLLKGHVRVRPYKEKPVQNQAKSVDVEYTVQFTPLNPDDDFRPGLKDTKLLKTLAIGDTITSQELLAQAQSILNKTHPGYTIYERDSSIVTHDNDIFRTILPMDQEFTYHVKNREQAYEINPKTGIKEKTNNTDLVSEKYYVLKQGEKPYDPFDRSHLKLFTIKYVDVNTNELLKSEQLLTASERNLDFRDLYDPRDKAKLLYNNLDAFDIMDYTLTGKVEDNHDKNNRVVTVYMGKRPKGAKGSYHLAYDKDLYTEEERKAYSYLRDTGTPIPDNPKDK

[5] = tested on: Streptococcus sp. 'group A'; assay: Streptococcus pyogenes SK(-)GAS viability under kanamycin – luminescence, BacTiterGlo, confirmation, counter-screen for streptokinase expression inhibitor project, dose response (AID 1900); type: functional, organism-based
Streptococcus = assay: GAS UMAA2166 growth inhibition – luminescence, BacTiterGlo, counter-screen for streptokinase expression inhibitor project, dose response (AID 1915); type: functional, organism-based;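 also: potency for reduction of bacterial viability or growth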
[6] = Luminescence Cell-Based Dose Retest to Confirm Inhibitors of Cancer Stem Cells. [Related pubchem assays (depositor defined):AID2717, AID2721]; type: functional; details: Homo sapiens
[7] = NIH3T3 cell viability loss – ATP luminescence, mouse fibroblasts, counter-screen, dose response (AID 2010); type: functional, cell-based;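 also: cells exposed to compound for about 90 hours before reading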
[8] = Trypanosoma cruzi growth suppression in host cells – NIH3T3 host cells, beta-gal luminescence, confirmation (AID 2044); type: functional, cell-based;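 also: intracellular parasites grown in NIH/3T3 mouse fibroblasts as host cells; luminescent beta-galactosidase reporter signal from transgenic T. cruzi replicating inside host cells; inhibitors lower the luminescence signal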

SMILES: CC(=O)c1ccc(OC(=O)c2cccs2)cc1
- EC50 (Protein RecA): 12.2 µM (active)
- AC50 [1]: 24.3 µM (active)

SMILES: O=C1c2ccccc2C(=O)C12Cc1ccccc1N1CCN(c3ccccc3)CC12 (stereo unspecified)
- EC50 [2]: > 120 µM (not active)
- EC50 [3]: > 120 µM (not active)
- EC50 [4]: > 120 µM (not active)

SMILES: O=C1N=C(Nc2ccc(Cl)cc2)SC1Cc1cccc(Cl)c1Cl (stereo unspecified)
- EC50 (Streptokinase A): 131 µM (active)
- EC50 [5]: 3.91 µM (active)
- EC50 (Streptococcus): > 150 µM (not active)
- AC50 [6]: 13.2 µM (active)

SMILES: Cc1ccc(Cl)cc1N1CCN(C(CC(C)C)c2nnnn2CC2CCCO2)CC1 (stereo unspecified)
- AC50 [6]: 0.631 µM (active)

SMILES: CC(=O)c1ccc(Oc2ncnc(N)c2[N+](=O)[O-])cc1
- EC50 [2]: 11.2 µM (active)
- EC50 [3]: 13.6 µM (active)
- EC50 [4]: > 120 µM (not active)

SMILES: CCC(C)N1C(=O)/C(=C/NNc2ccccc2)C(=O)NC1=S (stereo unspecified)
- EC50 (Streptokinase A): > 150 µM (not active)
- EC50 [5]: > 150 µM (not active)
- EC50 (Streptococcus): > 150 µM (not active)
- AC50 [6]: 2.24 µM (active)

SMILES: Nc1nc(NCCOCCO)nc(NC2CCCCC2)c1[N+](=O)[O-]
- EC50 [2]: 17.3 µM (active)
- EC50 [3]: 0.14 µM (active)
- EC50 [4]: 16.7 µM (active)

SMILES: Cc1n[nH]c2c1C(CC(C)C)C(C#N)=C(N)O2 (stereo unspecified)
- EC50 (Protein RecA): 3.84 µM (active)
- AC50 [1]: 13.1 µM (active)

SMILES: O=C(CCCN1C(=O)/C(=C\c2cccs2)SC1=S)Nc1ccc(O)cc1C(=O)O
- EC50 (Protein RecA): 12.7 µM (active)
- AC50 [1]: 17.7 µM (active)

SMILES: Cc1cc(N)n(-c2ccc(S(N)(=O)=O)cc2[N+](=O)[O-])n1
- AC50 [6]: > 195 µM (inactive)

SMILES: CCOC(=O)c1sc2nc(CC(=O)OC)nc(N3CCN(c4ccc(OC)cc4)CC3)c2c1C
- EC50 [7]: > 60 µM (not active)
- EC50 [2]: 89.9 µM (active)
- EC50 [8]: 1.91 µM (active)
- EC50 [3]: > 120 µM (not active)
- EC50 [4]: > 120 µM (not active)

SMILES: CC(C)n1nc(C(=O)Nc2nnc(SCc3c(Cl)cccc3Cl)s2)c2ccccc2c1=O
- EC50 (Streptokinase A): > 150 µM (not active)
- EC50 [5]: 2.09 µM (active)
- EC50 (Streptococcus): 116 µM (active)

SMILES: Cn1cnc([N+](=O)[O-])c1Sc1ccc(C(C)(C)C)cc1
- EC50 (Protein RecA): 14.1 µM (active)
- AC50 [1]: 13.6 µM (active)

SMILES: N#Cc1nc(Cc2cccc3ccccc23)oc1N1CCCCC1
- EC50 [2]: > 120 µM (not active)
- EC50 [3]: > 120 µM (not active)
- EC50 [4]: 16.2 µM (active)

SMILES: CC(C)[C@@H]1CC[C@@H](C)c2c1n[nH]c2-c1ccccc1
- AC50 [6]: 4.99 µM (active)

SMILES: Nc1nc(NCc2ccco2)nc(Nc2ccc(F)cc2)c1[N+](=O)[O-]
- EC50 [2]: > 120 µM (not active)
- EC50 [3]: > 120 µM (not active)
- EC50 [4]: 35 µM (active)

SMILES: COc1ccc(/C=C/c2cc(C(=O)O)c3ccccc3n2)cc1
- EC50 [2]: 6.45 µM (active)
- EC50 [3]: 2.83 µM (active)
- EC50 [4]: 3.67 µM (active)

SMILES: CCCc1nnc(NC(=O)c2c(O)c3cccc4c3n(c2=O)CCC4)s1
- EC50 [2]: > 120 µM (not active)
- EC50 [5]: 2.53 µM (active)
- EC50 (Streptococcus): 3.1 µM (active)
- EC50 [3]: > 120 µM (not active)
- EC50 [4]: 99.5 µM (active)

SMILES: COC(=O)Nc1nc(-c2ccccc2)c(C(=O)c2ccc(Cl)cc2)s1
- EC50 [2]: 0.179 µM (active)
- EC50 [3]: 7.87 µM (active)
- EC50 [4]: 7.45 µM (active)

SMILES: CCc1ccc(Nc2nc(N)nc(CSc3nc4ccccc4s3)n2)cc1
- AC50 [6]: > 195 µM (inactive)

SMILES: CCc1nnc(NC(=O)c2ccc(S(=O)(=O)N(C)Cc3ccccc3)cc2)o1
- EC50 [2]: > 120 µM (not active)
- EC50 [3]: > 120 µM (not active)
- EC50 [4]: > 120 µM (not active)

SMILES: CCCc1n[nH]c2c1C(c1ccccc1OCC)C(C#N)=C(N)O2 (stereo unspecified)
- EC50 (Protein RecA): 9.01 µM (active)
- AC50 [1]: 237 µM (active)

SMILES: CCOC(=O)C(C#N)C(c1cccnc1)c1c(C)[nH][nH]c1=O (stereo unspecified)
- EC50 (Protein RecA): 1.81 µM (active)
- AC50 [1]: 6.32 µM (active)

SMILES: Cc1ccc(Nc2nc(N)c([N+](=O)[O-])c(NCc3ccco3)n2)cc1C
- AC50 [6]: 6.48 µM (active)

SMILES: CCCC(O)(c1ccc(Br)cc1)C(CN1CCOCC1)c1ccc(Cl)cc1 (stereo unspecified)
- EC50 (Streptokinase A): 12.1 µM (active)
- EC50 [5]: 7.94 µM (active)
- EC50 (Streptococcus): 72.1 µM (active)

SMILES: CC1CCc2cccc3c2N1c1cc(C#N)c(C#N)cc1O3 (stereo unspecified)
- EC50 [2]: 33.4 µM (active)
- EC50 [3]: 88.7 µM (active)
- EC50 [4]: 8.54 µM (active)

SMILES: COc1ccc(-c2sc3ccc(N4CCOCC4)cc3c2C#CCCO)cc1
- AC50 [6]: 3 µM (active)

SMILES: Oc1nc(CN2CCN(c3ccccn3)CC2)nc2c(Br)cc(Br)cc12
- AC50 [6]: 2.76 µM (active)

SMILES: C[C@@H]1CN([C@H](C)CO)C(=O)c2cc(NC(=O)Nc3ccc(C(F)(F)F)cc3)ccc2O[C@H]1CN(C)S(=O)(=O)c1ccc(Cl)cc1
- AC50 [6]: 2.71 µM (active)

SMILES: Cc1cccc(C)c1NC(=S)N/N=C/c1ccc(OCCC(C)C)cc1
- EC50 [7]: > 60 µM (inconclusive)
- EC50 (Streptokinase A): 16.9 µM (active)
- EC50 [5]: 8.34 µM (active)
- EC50 (Streptococcus): 21.9 µM (active)
- EC50 [8]: 2.02 µM (active)
